# Tested on: 695427-040-R-J1-PDC complex spheroid viability
# Experiment: Anticancer human tumor 695427-040-R-J1-PDC patient-derived colon adenocarcinoma cell line growth inhibition [POLQ]
# Conditions: for IC50: curve of first compound; for viability, T/C: stronger effect = lower value
# How it was run: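 Patient-derived tumour cells were co-cultured with HUVEC and mesenchymal stem cells as multicellular spheroids at 37 °C. They were treated with POLQ inhibitors (novobiocin, ART-558, RP6685) alone or combined with other agents. Top concentrations were at or near clinical Cmax (otherwise 10 microM; SN-38 at 1 microM), decreasing in half-log steps.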
# [1] = second compound 0.0316 µM, first compound 0.0316 µM
# [2] = second compound 0.0316 µM, first compound 0.1 µM
# [3] = second compound 0.0316 µM, first compound 0.316 µM
# [4] = second compound 0.0316 µM, first compound 1 µM
# [5] = second compound 0.0316 µM, first compound 3.16 µM
# [6] = second compound 0.0316 µM, first compound 10 µM
# [7] = second compound 0.1 µM, first compound 0.0316 µM
# [8] = second compound 0.1 µM, first compound 0.1 µM
# [9] = second compound 0.1 µM, first compound 0.316 µM
# [10] = second compound 0.1 µM, first compound 1 µM
# [11] = second compound 0.1 µM, first compound 3.16 µM
# [12] = second compound 0.1 µM, first compound 10 µM
# [13] = second compound 0.316 µM, first compound 0.0316 µM
# [14] = second compound 0.316 µM, first compound 0.1 µM
# [15] = second compound 0.316 µM, first compound 0.316 µM
# [16] = second compound 0.316 µM, first compound 1 µM
# [17] = second compound 0.316 µM, first compound 3.16 µM
# [18] = second compound 0.316 µM, first compound 10 µM
# [19] = second compound 1 µM, first compound 0.0316 µM
# [20] = second compound 1 µM, first compound 0.1 µM
# [21] = second compound 1 µM, first compound 0.316 µM
# [22] = second compound 1 µM, first compound 1 µM
# [23] = second compound 1 µM, first compound 3.16 µM
# [24] = second compound 1 µM, first compound 10 µM
# [25] = second compound 3.16 µM, first compound 0.0316 µM
# [26] = second compound 3.16 µM, first compound 0.1 µM
# [27] = second compound 3.16 µM, first compound 0.316 µM
# [28] = second compound 3.16 µM, first compound 1 µM
# [29] = second compound 3.16 µM, first compound 3.16 µM
# [30] = second compound 3.16 µM, first compound 10 µM
# [31] = second compound 10 µM, first compound 0.0316 µM
# [32] = second compound 10 µM, first compound 0.1 µM
# [33] = second compound 10 µM, first compound 0.316 µM
# [34] = second compound 10 µM, first compound 1 µM
# [35] = second compound 10 µM, first compound 3.16 µM
# [36] = second compound 10 µM, first compound 10 µM
# 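Further: spheroids exposed to compounds for seven days.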
# 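Wherever viability, T/C is given: 100% = DMSO vehicle control viability.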
smiles,measurement,setting,value
CC(=O)O[C@H]1C(=O)[C@@]2(C)[C@H]([C@H](OC(=O)c3ccccc3)[C@]3(O)C[C@H](OC(=O)[C@H](O)[C@@H](NC(=O)c4ccccc4)c4ccccc4)C(C)=C1C3(C)C)[C@]1(OC(C)=O)CO[C@@H]1C[C@@H]2O + COC1C(OC(N)=O)C(O)C(Oc2ccc3c(O)c(NC(=O)c4ccc(O)c(CC=C(C)C)c4)c(=O)oc3c2C)OC1(C)C,IC50,second compound 0.0316 µM,> 3 µM
same,IC50,second compound 0.1 µM,> 3 µM
same,IC50,second compound 0.316 µM,> 3 µM
same,IC50,second compound 1 µM,> 3 µM
same,IC50,second compound 3.16 µM,> 3 µM
same,IC50,second compound 10 µM,> 3 µM
same,"viability, T/C","second compound 0.0316 µM, first compound 0.00949 µM",96.4%
same,"viability, T/C","second compound 0.0316 µM, first compound 0.03 µM",85.9%
same,"viability, T/C","second compound 0.0316 µM, first compound 0.0949 µM",84.7%
same,"viability, T/C","second compound 0.0316 µM, first compound 0.3 µM",89.5%
same,"viability, T/C","second compound 0.0316 µM, first compound 0.949 µM",84.6%
same,"viability, T/C","second compound 0.0316 µM, first compound 3 µM",72.2%
same,"viability, T/C","second compound 0.1 µM, first compound 0.00949 µM",96.4%
same,"viability, T/C","second compound 0.1 µM, first compound 0.03 µM",98.1%
same,"viability, T/C","second compound 0.1 µM, first compound 0.0949 µM",94.1%
same,"viability, T/C","second compound 0.1 µM, first compound 0.3 µM",85.9%
same,"viability, T/C","second compound 0.1 µM, first compound 0.949 µM",89.8%
same,"viability, T/C","second compound 0.1 µM, first compound 3 µM",72.4%
same,"viability, T/C","second compound 0.316 µM, first compound 0.00949 µM",103%
same,"viability, T/C","second compound 0.316 µM, first compound 0.03 µM",91.4%
same,"viability, T/C","second compound 0.316 µM, first compound 0.0949 µM",91%
same,"viability, T/C","second compound 0.316 µM, first compound 0.3 µM",92.4%
same,"viability, T/C","second compound 0.316 µM, first compound 0.949 µM",88.1%
same,"viability, T/C","second compound 0.316 µM, first compound 3 µM",77.9%
same,"viability, T/C","second compound 1 µM, first compound 0.00949 µM",99.2%
same,"viability, T/C","second compound 1 µM, first compound 0.03 µM",93.3%
same,"viability, T/C","second compound 1 µM, first compound 0.0949 µM",86.1%
same,"viability, T/C","second compound 1 µM, first compound 0.3 µM",90.5%
same,"viability, T/C","second compound 1 µM, first compound 0.949 µM",88.5%
same,"viability, T/C","second compound 1 µM, first compound 3 µM",78.6%
same,"viability, T/C","second compound 3.16 µM, first compound 0.00949 µM",92.5%
same,"viability, T/C","second compound 3.16 µM, first compound 0.03 µM",97.9%
same,"viability, T/C","second compound 3.16 µM, first compound 0.0949 µM",86.7%
same,"viability, T/C","second compound 3.16 µM, first compound 0.3 µM",87.3%
same,"viability, T/C","second compound 3.16 µM, first compound 0.949 µM",87.6%
same,"viability, T/C","second compound 3.16 µM, first compound 3 µM",76.3%
same,"viability, T/C","second compound 10 µM, first compound 0.00949 µM",93.7%
same,"viability, T/C","second compound 10 µM, first compound 0.03 µM",97.2%
same,"viability, T/C","second compound 10 µM, first compound 0.0949 µM",91.7%
same,"viability, T/C","second compound 10 µM, first compound 0.3 µM",88.5%
same,"viability, T/C","second compound 10 µM, first compound 0.949 µM",87.6%
same,"viability, T/C","second compound 10 µM, first compound 3 µM",77%
COc1cc(C2c3cc4c(cc3C(OC3OC5COC(C)OC5C(O)C3O)C3COC(=O)C23)OCO4)cc(OC)c1O (stereo unspecified) + COC1C(OC(N)=O)C(O)C(Oc2ccc3c(O)c(NC(=O)c4ccc(O)c(CC=C(C)C)c4)c(=O)oc3c2C)OC1(C)C,IC50,second compound 0.0316 µM,> 10 µM
same,IC50,second compound 0.1 µM,> 10 µM
same,IC50,second compound 0.316 µM,> 10 µM
same,IC50,second compound 1 µM,> 10 µM
same,IC50,second compound 3.16 µM,> 10 µM
same,IC50,second compound 10 µM,> 10 µM
same,"viability, T/C",[1],96.7%
same,"viability, T/C",[2],92.3%
same,"viability, T/C",[3],98.8%
same,"viability, T/C",[4],96.2%
same,"viability, T/C",[5],98.4%
same,"viability, T/C",[6],82.4%
same,"viability, T/C",[7],101%
same,"viability, T/C",[8],93.4%
same,"viability, T/C",[9],101%
same,"viability, T/C",[10],93.8%
same,"viability, T/C",[11],99.5%
same,"viability, T/C",[12],83.6%
same,"viability, T/C",[13],104%
same,"viability, T/C",[14],92.3%
same,"viability, T/C",[15],94.7%
same,"viability, T/C",[16],97%
same,"viability, T/C",[17],95.3%
same,"viability, T/C",[18],80.6%
same,"viability, T/C",[19],107%
same,"viability, T/C",[20],98.5%
same,"viability, T/C",[21],112%
same,"viability, T/C",[22],100%
same,"viability, T/C",[23],96.4%
same,"viability, T/C",[24],83.7%
same,"viability, T/C",[25],99.4%
same,"viability, T/C",[26],98.3%
same,"viability, T/C",[27],101%
same,"viability, T/C",[28],101%
same,"viability, T/C",[29],98.9%
same,"viability, T/C",[30],82.8%
same,"viability, T/C",[31],94.5%
same,"viability, T/C",[32],95.2%
same,"viability, T/C",[33],95.3%
same,"viability, T/C",[34],99.9%
same,"viability, T/C",[35],103%
same,"viability, T/C",[36],83.2%
COc1cccc2c1C(=O)c1c(O)c3c(c(O)c1C2=O)CC(O)(C(=O)CO)CC3OC1CC(N)C(O)C(C)O1 (stereo unspecified) + COC1C(OC(N)=O)C(O)C(Oc2ccc3c(O)c(NC(=O)c4ccc(O)c(CC=C(C)C)c4)c(=O)oc3c2C)OC1(C)C,IC50,second compound 0.0316 µM,> 10 µM
same,IC50,second compound 0.1 µM,> 10 µM
same,IC50,second compound 0.316 µM,> 10 µM
same,IC50,second compound 1 µM,> 10 µM
same,IC50,second compound 3.16 µM,> 10 µM
same,IC50,second compound 10 µM,> 10 µM
same,"viability, T/C",[1],98.1%
same,"viability, T/C",[2],96.5%
same,"viability, T/C",[3],98%
same,"viability, T/C",[4],74%
same,"viability, T/C",[5],68.2%
same,"viability, T/C",[6],54.5%
same,"viability, T/C",[7],106%
same,"viability, T/C",[8],95.2%
same,"viability, T/C",[9],95.1%
same,"viability, T/C",[10],74.4%
same,"viability, T/C",[11],64%
same,"viability, T/C",[12],51.5%
same,"viability, T/C",[13],102%
same,"viability, T/C",[14],91.6%
same,"viability, T/C",[15],84%
same,"viability, T/C",[16],79%
same,"viability, T/C",[17],65.9%
same,"viability, T/C",[18],48.6%
same,"viability, T/C",[19],98.4%
same,"viability, T/C",[20],95.1%
same,"viability, T/C",[21],92.1%
same,"viability, T/C",[22],81.1%
same,"viability, T/C",[23],68.3%
same,"viability, T/C",[24],50.3%
same,"viability, T/C",[25],99.4%
same,"viability, T/C",[26],98%
same,"viability, T/C",[27],88.9%
same,"viability, T/C",[28],75.7%
same,"viability, T/C",[29],70.1%
same,"viability, T/C",[30],54.5%
same,"viability, T/C",[31],103%
same,"viability, T/C",[32],90.5%
same,"viability, T/C",[33],105%
same,"viability, T/C",[34],87.3%
same,"viability, T/C",[35],67.5%
same,"viability, T/C",[36],55.8%

# Reference: PubChem BioAssay AID1963840 (Molecular Pharmacology Branch, DTP, NCI, 2024)
